Data from PubChem BioAssay (NCI).
Several values for one entry are separate records, joined by “and”; a condition that tells them apart may be missing. Equal values may be shown once.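 The compound was tested at five concentrations on cells cultured in 96-well plates, with a 48-hour exposure period. GI50 is the concentration that inhibits growth by half. The concentration for full growth arrest is given as TGI.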

What was measured:
Experiment in all cases: DTP human tumour cell line panel, 48 h
[1] = tested on: HCT-15 colon
[2] = tested on: M14 melanoma
[3] = tested on: LXFL 529 NSCLC
[4] = tested on: UACC-257 melanoma
[5] = tested on: OVCAR-3 ovarian
[6] = tested on: TK-10 renal
[7] = tested on: ACHN renal
[8] = tested on: DLD-1 colon
[9] = tested on: DU-145 prostate
[10] = tested on: T-47D breast

For COc1ccc(NC(=O)CC(=O)N/N=C/c2ccc(N(CCC#N)S(=O)(=O)c3ccccc3)cc2)cc1, the TGI [1] was > 100 µM, the TGI [2] was > 100 µM and the TGI [3] was > 100 µM. For the same molecule, the TGI [4] was > 100 µM, the TGI [5] was > 100 µM and the TGI [6] was > 100 µM. The TGI [7] was > 100 µM and the TGI [8] was > 100 µM.
In the case of COc1ccc(C(=O)C(C(=O)C(=O)Nc2nccs2)c2ccc(OC)cc2)cc1 (stereo not drawn), the TGI [1] is reported as > 100 µM, the TGI [2] is reported as > 100 µM and the TGI [3] is reported as > 100 µM. For the same molecule, the TGI [4] was > 100 µM, the TGI [5] was > 100 µM and the TGI [6] was > 100 µM. For the same molecule, the TGI [7] was > 100 µM and the TGI [8] was > 100 µM.
With COc1cc2c([C@@H](OC(=O)c3ccccc3)c3ccc4c(c3)OCO4)nccc2c(OC)c1OC the TGI [1] was > 100 µM, the TGI [2] was > 100 µM and the TGI [3] was > 100 µM. The TGI [4] was > 100 µM, the TGI [5] was > 100 µM and the TGI [6] was > 100 µM. The TGI [8] was > 100 µM.
For CCCCN(CCCC)C(=O)C(=O)C(C)C(=O)CC (stereo not drawn), the TGI [1] was > 100 µM, the TGI [2] was > 100 µM and the TGI [3] was > 100 µM. The TGI [4] was > 100 µM, the TGI [5] was > 100 µM and the TGI [6] was > 100 µM. For the same molecule, the TGI [7] was > 100 µM and the TGI [8] was > 100 µM.
Cc1cccc(C)c1NC(=O)CCC(=O)NC(N)=S was tested, and the TGI [1] was > 100 µM, the TGI [2] was > 100 µM and the TGI [3] was > 100 µM. For the same molecule, the TGI [4] was > 100 µM, the TGI [5] was > 100 µM and the TGI [6] was > 100 µM. The TGI [7] was > 100 µM and the TGI [8] was > 100 µM.
With Cc1[nH]nc2c1C(=O)C=C(N(CCO)c1ccccc1)C2=O the TGI [1] was > 100 µM, the TGI [2] was > 100 µM and the TGI [3] was > 100 µM. For the same molecule, the TGI [4] was > 100 µM, the TGI [5] was > 100 µM and the TGI [6] was > 100 µM. For the same molecule, the TGI [8] was > 100 µM.
N#CC(C(=N/NC(N)=S)/C(=N/NC(N)=S)C(C#N)c1ccc(Cl)cc1)c1ccc(Cl)cc1 (stereo not drawn) was tested, and the TGI [1] was > 100 µM, the TGI [2] was > 100 µM and the TGI [3] was > 100 µM. The TGI [4] was > 100 µM, the TGI [5] was > 100 µM and the TGI [6] was > 100 µM. For the same molecule, the TGI [7] was > 100 µM and the TGI [8] was > 100 µM.
In the case of CCc1cccc(C(C)CC)c1NC(=O)C(=O)C(CC(=O)Nc1ccc(Cl)c(Cl)c1)C(=O)OC (stereo not drawn), the TGI [1] is reported as > 100 µM, the TGI [2] is reported as > 100 µM and the TGI [3] is reported as > 100 µM. For the same molecule, the TGI [4] was > 100 µM, the TGI [5] was > 100 µM and the TGI [6] was > 100 µM. The TGI [7] was 69.8 µM and the TGI [8] was > 100 µM.
Cc1nc(Nc2ccccc2)sc1C(=O)NNc1ccc([N+](=O)[O-])cc1[N+](=O)[O-] was tested, and the TGI [1] was > 100 µM, the TGI [2] was > 100 µM and the TGI [3] was > 100 µM. The TGI [4] was > 100 µM, the TGI [5] was > 100 µM and the TGI [6] was > 100 µM. For the same molecule, the TGI [7] was > 100 µM and the TGI [8] was > 100 µM.
In the case of O=C1C(=O)c2ccccc2C(O)=C1CC=C(Cl)Cl, the GI50 [9] is reported as 12 µM and 10.9 µM, the TGI [9] is reported as 204 µM and > 100 µM and the GI50 [10] is reported as 11 µM and 20.1 µM. For the same molecule, the TGI [10] was 49.3 µM and 213 µM and > 100 µM, the GI50 [1] was 0.424 µM and the TGI [1] was 51.7 µM and 159 µM and > 100 µM. The GI50 [2] was 29.4 µM and 9.94 µM, the TGI [2] was > 90.7 µM and 108 µM and > 100 µM and the TGI [4] was 58.2 µM and 65.8 µM and 65.3 µM. The GI50 [5] was 9.76 µM and 15 µM, the TGI [5] was 38.9 µM and 70.8 µM and 70.3 µM and the GI50 [6] was 25.7 µM and 20.7 µM. The TGI [6] was 98.6 µM and 195 µM and > 100 µM, the GI50 [7] was 3.48 µM and 7.5 µM and the TGI [7] was 23 µM and 187 µM and > 100 µM. It also gave a GI50 [8] of 7.21 µM and a TGI [8] of 178 µM.
O=C(O)/C(=C\c1ccccc1Cl)S(=O)(=O)c1ccccc1 was tested, and the TGI [1] was > 100 µM, the TGI [2] was > 100 µM and the TGI [3] was > 100 µM. For the same molecule, the TGI [4] was > 100 µM, the TGI [6] was > 100 µM and the TGI [7] was > 100 µM. The TGI [8] was > 100 µM.
COc1ccc(Cl)cc1NC(=O)c1cccc([N+](=O)[O-])c1O was tested, and the TGI [9] was > 100 µM, the TGI [10] was > 100 µM and the TGI [1] was > 100 µM. The TGI [2] was > 100 µM, the TGI [3] was > 100 µM and the TGI [4] was > 67.9 µM. The TGI [5] was 33 µM, the TGI [6] was > 100 µM and the TGI [7] was > 70.4 µM. For the same molecule, the TGI [8] was > 100 µM.
CCCCCCCCCCCC(=O)c1c(O)cccc1O gave a TGI [1] of 33.4 µM, a TGI [2] of 33.3 µM and a TGI [3] of 32.6 µM. It also gave a TGI [4] of 30.8 µM, a TGI [5] of 31.4 µM and a TGI [6] of 92.4 µM. For the same molecule, the TGI [7] was 33.8 µM and the TGI [8] was 33.8 µM.
CC(C(=O)c1ccc(Cl)cc1)C1OC(=O)C(Cl)=C1Cl (stereo not drawn) was tested, and the TGI [1] was 50.5 µM, the TGI [2] was > 100 µM and the TGI [3] was 40.6 µM. For the same molecule, the TGI [4] was > 100 µM, the TGI [5] was 71.9 µM and the TGI [6] was > 100 µM. For the same molecule, the TGI [7] was > 100 µM and the TGI [8] was 49.9 µM.
In the case of O=S(=O)(O)c1cc(N=Nc2cc(S(=O)(=O)O)c3cccnc3c2O)ccc1/C=C/c1ccc(N=Nc2cc(S(=O)(=O)O)c3cccnc3c2O)cc1S(=O)(=O)O, the TGI [9] is reported as > 100 µM, the TGI [10] is reported as > 100 µM and the TGI [1] is reported as > 100 µM. For the same molecule, the TGI [2] was > 100 µM, the TGI [3] was > 100 µM and the TGI [4] was > 100 µM. The TGI [5] was > 100 µM, the TGI [6] was > 100 µM and the TGI [7] was > 100 µM. The TGI [8] was > 100 µM.
CCCCCC(O)(CCCCC)CCCCCCCCC1=C(O)c2[nH]c(=O)ccc2C(=O)C1=O showed a TGI [1] of 16.3 µM, a TGI [2] of 21.6 µM and a TGI [3] of 15.7 µM. For the same molecule, the TGI [4] was 14.3 µM, the TGI [5] was 16.2 µM and the TGI [7] was 19.2 µM. It also gave a TGI [8] of 19.7 µM.
For COC(=O)/C(=C/c1ccc(OC)cc1)NC(=O)c1ccccc1, the TGI [1] was > 100 µM, the TGI [2] was > 100 µM and the TGI [3] was > 100 µM. The TGI [4] was > 100 µM, the TGI [6] was > 100 µM and the TGI [7] was > 100 µM. The TGI [8] was > 100 µM.
CN1CCN(CCNc2ccc(CO)c3sc4ccccc4c(=O)c23)CC1 gave a GI50 [9] of 3.43 µM, a TGI [9] of 11.9 µM and a GI50 [10] of 3.37 µM. The TGI [10] was 19.4 µM, the TGI [1] was 18 µM and the TGI [2] was 12 µM. For the same molecule, the TGI [3] was 22.6 µM, the TGI [4] was 9.84 µM and the TGI [5] was 18.3 µM. It also gave a TGI [6] of 20.1 µM, a TGI [7] of 26.7 µM and a TGI [8] of 53.2 µM.
N[C@@H]1CCCC[C@@H]1N.O=C([O-])CN(CP(=O)([O-])[O-])CP(=O)([O-])[O-].[Pt+2] was tested, and the GI50 [1] was > 100 µM, the TGI [1] was > 100 µM and the GI50 [2] was > 100 µM. For the same molecule, the TGI [2] was > 100 µM, the GI50 [3] was > 100 µM and the TGI [3] was > 100 µM. For the same molecule, the GI50 [4] was > 100 µM, the TGI [4] was > 100 µM and the GI50 [5] was > 100 µM. The TGI [5] was > 100 µM, the GI50 [6] was > 100 µM and the TGI [6] was > 100 µM. For the same molecule, the GI50 [7] was > 100 µM, the TGI [7] was > 100 µM and the GI50 [8] was > 100 µM. For the same molecule, the TGI [8] was > 100 µM.
For C#C[C@H](CCCC)OC(=O)N[C@H](C)c1ccccc1, the TGI [2] was > 100 µM, the TGI [3] was > 100 µM and the TGI [4] was 71 µM. The TGI [5] was > 100 µM, the TGI [6] was > 100 µM and the TGI [7] was > 100 µM. The TGI [8] was > 100 µM.
COc1cc(Cl)c2c3c(c(C(=O)c4ccccc4)oc13)CCC2 was tested, and the TGI [1] was > 100 µM, the TGI [2] was > 100 µM and the TGI [3] was > 100 µM. The TGI [4] was > 100 µM, the TGI [5] was > 100 µM and the TGI [6] was > 100 µM. The TGI [7] was > 100 µM and the TGI [8] was > 100 µM.
In the case of CC1(C)CC(=O)C(=[N+]=[N-])C(=O)C1, the TGI [1] is reported as > 100 µM, the TGI [2] is reported as > 100 µM and the TGI [3] is reported as > 100 µM. The TGI [4] was > 100 µM, the TGI [5] was > 100 µM and the TGI [6] was > 100 µM. For the same molecule, the TGI [7] was > 100 µM and the TGI [8] was > 100 µM.
CC1CCP(=O)(c2ccccc2)CC1 (stereo not drawn) was tested, and the TGI [1] was > 100 µM, the TGI [2] was > 100 µM and the TGI [3] was > 100 µM. For the same molecule, the TGI [4] was > 100 µM, the TGI [5] was > 100 µM and the TGI [6] was > 100 µM. For the same molecule, the TGI [7] was > 100 µM and the TGI [8] was > 100 µM.
